Assays:
Type in all cases: cell-based, human
[1] = system: 22RV1 cells; assay: 22RV1 apoptosis (Caspase-glo 3/7); details: 72 hours; for Apoptosis (% untreated control): 22RV1 cells
Protocol: After a treatment period of 72 hours in complete medium or CSS+DHT medium, apoptosis of the cancer cells was measured with Caspase-glo 3/7 assay kit (Promega). Results are presented in Tables 131 and 132 as percent apoptosis of the cells, relative to non-treated cells.

[2] = system: VCaP cells; assay: VCaP cell proliferation; details: 5 days; for Proliferation (% untreated control): VCaP cells
Protocol: (§1) After a treatment period of 5 days in complete medium or CSS+1 nM DHT medium, the proliferative capacity of the cancer cells was measured with using CellTiter 96® AQueous One or CellTiter-Glo® Solution Cell Proliferation kit (Promega), following the manufacturer's instructions. […] Treatment with ISIS oligonucleotides in CSS+DHT medium reduced the proliferative capacity to a greater extent than treatment with MVD-3100. The proliferative capacity of cells cultured in CSS medium without DHT is 12% of untreated control levels.

[3] = system: TMPRSS2 mRNA; assay: Time-course TMPRSS2 expression in C4-2B cells
Protocol: C4-2B cells were plated at 1,000 cells per well in complete medium. […] ISIS 549148 was included as a negative control. […] After a treatment period of 8 hours, 24 hours, and 48 hours, AR expression was measured with primer probe set hAR-LTS00943. Results are presented in Tables 70-72 as percent expression of AR, relative to non-treated cells.
Expression analysis of prostate-specific antigen (PSA) and TMPRSS2 were also analyzed. Results are presented in Tables 73-75 as percent inhibition of PSA expression and Tables 76-78 as percent inhibition of TMPRSS2 expression, relative to non-treated cells.

[4] = system: 22RV1 cells; assay: 22RV1 cell proliferation (Example 32); details: 5 days; for Proliferation (% untreated control): 22RV1 cells, complete medium
Protocol: as §1, with “complete” for “complete medium or CSS+1 nM DHT”

[5] = system: AR mRNA; assay: AR mRNA levels in LMR20 cells (with/without DHT or R1881); details: with or without DHT/R1881
Protocol: (§2) LMR20 cells were plated at 1,500 cells per well in phenol red-free medium with CSS.

[6] = system: C4-2B cells; assay: C4-2B cell proliferation, ASO in combination with MDV3100 (Example 21); details: for Proliferation (% untreated control) in C4-2B without MDV-3100: 5 days
Protocol: C4-2B cells were plated at 1,000 cells per well. […] ISIS 549148 was included as a negative control. […] After a treatment period of 5 days, the proliferative capacity of the cancer cells was measured with CellTiter 96® AQueous One Solution Cell Proliferation kit (Promega), following the manufacturer's instructions. […]

[7] = system: PSA mRNA; assay: PSA expression in C4-2 cells; details: 48 hrs; for Percent inhibition of PSA expression: C4-2 cells, CSS + DHT medium
Protocol: Cells were plated at 1,000 cells per well. […] After an incubation period of 48 hrs, RNA levels of AR, PSA and TMPRSS2 were measured.
Cells were plated at 2,000 cells per well and cultured in CSS media with 1 nM DHT. […] After an incubation period of 48 hrs, RNA levels of AR, PSA and TMPRSS2 were measured.

[8] = system: TMPRSS2 mRNA; assay: TMPRSS2 mRNA levels in LMR20 cells; details: with or without DHT/R1881
Protocol: as §2

Sequence: TGATTTAATGGTTGCA [ISIS 569236] (cEt/MOE gapmer chemistry, further chemistry not given here) [targets intron 1]
- Apoptosis (% untreated control) ([1]; CSS + DHT medium, 1.34 nM): 127 % untreated control
- Apoptosis (% untreated control) ([1]; CSS + DHT medium, 4.0 nM): 106 % untreated control
- Apoptosis (% untreated control) ([1]; CSS + DHT medium, 13.4 nM): 257 % untreated control
- Apoptosis (% untreated control) ([1]; CSS + DHT medium, 40 nM): 1136 % untreated control
- Apoptosis (% untreated control) ([1]; complete medium, 1.34 nM): 91 % untreated control
- Apoptosis (% untreated control) ([1]; complete medium, 4.0 nM): 141 % untreated control
- Apoptosis (% untreated control) ([1]; complete medium, 13.4 nM): 333 % untreated control
- Apoptosis (% untreated control) ([1]; complete medium, 40 nM): 1452 % untreated control
- apoptosis of 22RV1 cells ([1]; complete or CSS+DHT medium): increased apoptosis of the cells in a dose dependent compared to the control
- Proliferation (% untreated control) ([2]; CSS + DHT medium, 1.34 nM): 83 % untreated control
- Proliferation (% untreated control) ([2]; CSS + DHT medium, 4.0 nM): 68 % untreated control
- Proliferation (% untreated control) ([2]; CSS + DHT medium, 13.4 nM): 61 % untreated control
- Proliferation (% untreated control) ([2]; CSS + DHT medium, 40 nM): 45 % untreated control
- Proliferation (% untreated control) ([2]; complete medium, 1.34 nM): 98 % untreated control
- Proliferation (% untreated control) ([2]; complete medium, 4.0 nM): 76 % untreated control
- Proliferation (% untreated control) ([2]; complete medium, 13.4 nM): 68 % untreated control
- Proliferation (% untreated control) ([2]; complete medium, 40 nM): 59 % untreated control
- proliferation of VCaP cells ([2]; complete medium or CSS+1 nM DHT): reduced proliferation of the cells in a dose dependent compared to the control
- Percent inhibition of TMPRSS2 expression compared to the control group in 8 hours ([3]; 0.04 μM): 0%
- Percent inhibition of TMPRSS2 expression compared to the control group in 24 hours ([3]; 0.04 μM): 10%
- Percent inhibition of TMPRSS2 expression compared to the control group in 48 hours ([3]; 0.04 μM): 22%
- Percent inhibition of TMPRSS2 expression compared to the control group in 8 hours ([3]; 0.2 μM): 0%
- Percent inhibition of TMPRSS2 expression compared to the control group in 24 hours ([3]; 0.2 μM): 32%
- Percent inhibition of TMPRSS2 expression compared to the control group in 48 hours ([3]; 0.2 μM): 57%
- Percent inhibition of TMPRSS2 expression compared to the control group in 8 hours ([3]; 1 μM): 0%
- Percent inhibition of TMPRSS2 expression compared to the control group in 24 hours ([3]; 1 μM): 57%
- Percent inhibition of TMPRSS2 expression compared to the control group in 48 hours ([3]; 1 μM): 70%
- Percent inhibition of TMPRSS2 expression compared to the control group in 8 hours ([3]; 5.0 μM): 0%
- Percent inhibition of TMPRSS2 expression compared to the control group in 24 hours ([3]; 5.0 μM): 66%
- Percent inhibition of TMPRSS2 expression compared to the control group in 48 hours ([3]; 5.0 μM): 75%
- TMPRSS2 expression ([3]; time course): reduced PSA and TMPRSS2 expression in the cells relative to the control set at the 24 hr and 48 hr time points
- Proliferation (% untreated control) ([4]; 1.34 nM): 92 % untreated control
- Proliferation (% untreated control) ([4]; 4.0 nM): 53 % untreated control
- Proliferation (% untreated control) ([4]; 13.4 nM): 20 % untreated control
- Proliferation (% untreated control) ([4]; 40 nM): 7 % untreated control
- proliferation of 22RV1 cells [4]: reduced proliferation of the cells in a dose dependent compared to the control
- AR mRNA levels in LMR20 cells [5]: reduced AR mRNA levels in LMR20 cells, treated with or without either AR agonist, in a dose dependent manner relative to the baseline
- Proliferation (% untreated control) in C4-2B with 0.08 μM MDV-3100 ([6]; ASO dose 0.04 μM + 0.08 μM MDV-3100): 79 % untreated control
- Proliferation (% untreated control) in C4-2B with 0.4 μM MDV-3100 ([6]; ASO dose 0.04 μM + 0.4 μM MDV-3100): 63 % untreated control
- Proliferation (% untreated control) in C4-2B with 2.0 μM MDV-3100 ([6]; ASO dose 0.04 μM + 2.0 μM MDV-3100): 45 % untreated control
- Proliferation (% untreated control) in C4-2B with […] MDV-3100 ([6]; ASO dose 0.04 μM + […] MDV-3100): 74 % untreated control
- Proliferation (% untreated control) in C4-2B without MDV-3100 ([6]; ASO dose 0.04 μM): 72 % untreated control
- Proliferation (% untreated control) in C4-2B with 0.08 μM MDV-3100 ([6]; ASO dose 0.08 μM + 0.08 μM MDV-3100): 89 % untreated control
- Proliferation (% untreated control) in C4-2B with 0.4 μM MDV-3100 ([6]; ASO dose 0.08 μM + 0.4 μM MDV-3100): 90 % untreated control
- Proliferation (% untreated control) in C4-2B with 2.0 μM MDV-3100 ([6]; ASO dose 0.08 μM + 2.0 μM MDV-3100): 44 % untreated control
- Proliferation (% untreated control) in C4-2B with […] MDV-3100 ([6]; ASO dose 0.08 μM + […] MDV-3100): 107 % untreated control
- Proliferation (% untreated control) in C4-2B without MDV-3100 ([6]; ASO dose 0.08 μM): 100 % untreated control
- Proliferation (% untreated control) in C4-2B with 0.08 μM MDV-3100 ([6]; ASO dose 0.2 μM + 0.08 μM MDV-3100): 51 % untreated control
- Proliferation (% untreated control) in C4-2B with 0.4 μM MDV-3100 ([6]; ASO dose 0.2 μM + 0.4 μM MDV-3100): 48 % untreated control
- Proliferation (% untreated control) in C4-2B with 2.0 μM MDV-3100 ([6]; ASO dose 0.2 μM + 2.0 μM MDV-3100): 48 % untreated control
- Proliferation (% untreated control) in C4-2B with […] MDV-3100 ([6]; ASO dose 0.2 μM + […] MDV-3100): 65 % untreated control
- Proliferation (% untreated control) in C4-2B without MDV-3100 ([6]; ASO dose 0.2 μM): 63 % untreated control
- Proliferation (% untreated control) in C4-2B with 0.08 μM MDV-3100 ([6]; ASO dose 1.0 μM + 0.08 μM MDV-3100): 43 % untreated control
- Proliferation (% untreated control) in C4-2B with 0.4 μM MDV-3100 ([6]; ASO dose 1.0 μM + 0.4 μM MDV-3100): 39 % untreated control
- Proliferation (% untreated control) in C4-2B with 2.0 μM MDV-3100 ([6]; ASO dose 1.0 μM + 2.0 μM MDV-3100): 46 % untreated control
- Proliferation (% untreated control) in C4-2B with […] MDV-3100 ([6]; ASO dose 1.0 μM + […] MDV-3100): 55 % untreated control
- Proliferation (% untreated control) in C4-2B without MDV-3100 ([6]; ASO dose 1.0 μM): 51 % untreated control
- synergy with MDV3100 ([6]; C4-2B cells): synergistic with MDV3100
- cell proliferation inhibited, combination ([6]; C4-2B cells, 0.2 μM ASO in combination with 0.08 μM MDV3100): 52%
- inhibited cell proliferation, ASO alone ([6]; C4-2B cells, ASO alone at 0.2 μM): 37%
- Percent inhibition of PSA expression ([7]; 0.04 μM): 0%
- Percent inhibition of PSA expression ([7]; 0.2 μM): 4%
- Percent inhibition of PSA expression ([7]; 1 μM): 57%
- Percent inhibition of PSA expression ([7]; 5.0 μM): 64%
- Percent inhibition of PSA expression in C4-2 cells cultured in complete medium ([7]; 0.04 μM): 35%
- Percent inhibition of PSA expression in C4-2 cells cultured in complete medium ([7]; 0.2 μM): 62%
- Percent inhibition of PSA expression in C4-2 cells cultured in complete medium ([7]; 1 μM): 83%
- Percent inhibition of PSA expression in C4-2 cells cultured in complete medium ([7]; 5.0 μM): 88%
- TMPRSS2 mRNA levels in LMR20 cells [8]: reduced PSA levels and TMPRSS2 more extensively than the LNA gapmer ISIS 554221 or MDV3100
